Data reported in article PMC10516900 (Communications Biology, 2023).
“And” between values parts separate entries of the source, which are not always exact repeats. Identical values can stand only once.

Columns and labels:
USP7 = conditions: cited from earlier work
USP47 = conditions: cited from earlier work
HCT116 (p53+/+) cells = assay: Q-PCR relative expression levels, HCT116 (p53+/+); type: cell-based, human
cUSP47CD = cUSP47CD (Caenorhabditis elegans, UniProt Q22240); assay: Ub-AMC enzymatic inhibition assay, cUSP47CD; type: biochemical; parameters: Residual enzymatic activity, cUSP47CD_IC50(p50429): unit not given here
Method: (§1) Enzymes and substrates were diluted in the reaction buffer (20 mM HEPES, pH 7.4, 150 mM NaCl, and 5 mM DTT) to a concentration of 5 μM for the substrate and 0.5 μM for the enzymes. At the indicated time points following the reaction initiation, 10 μL reaction aliquots were taken and the reaction was stopped by adding SDS sampling buffer and analyzed using SDS-PAGE. Then, the 4–15% gradient gel was stained with Coomassie Brilliant Blue R-250. USP enzymatic activity and inhibition assays were measured at room temperature using the cleavage-sensitive fluorogenic substrate Ub-AMC (Boston Biochem, U-550). The deubiquitination assay was performed following the protocol by Ernst et al.[30]. Briefly, enzyme activity assays were performed in assay buffer in 20 mM HEPES (pH 7.4), 100 mM NaCl, and 5 mM DTT) containing cUSP47CD (in 50 nM), hUSP47CD-UBL12 (in 100 nM) or hUSP7CD (in 100 nM) constructs and serial dilutions of Ub-AMC (final 35 μM). The AMC fluorescence emission was monitored at 460 nm (excitation at 380 nm) for 30–60 min using a SpectraMax M3 plate reader (Molecular Devices). […] The data were fitted using GraphPad Prism 7 (GraphPad Inc.). Fluorescence intensity was recorded every 45 s for 90 min. Data are presented as the mean ± SD (n = 3).

Flag-USP7 = target: T1, Flag-USP7 (Homo sapiens, UniProt Q93009); assay: Immunoprecipitation and DUB assay with K48-linked ubiquitin chains, Flag-USP7 from treated HEK293T cells; type: cell-based; conditions: HEK293T cells treated for 2 h, immunoprecipitated Flag-USP7, Fig. 2f
T1 construct: expressed in transfected cells; host or cells: HEK293T
Method: Fig. 2 Biochemical properties of USP47. a Domain structure of USP47 and the constructs used in this study. b HEK293T cells were transfected with USP Flag-tagged mutants. […] The IC50 values were determined in triplicate and fitted to a four-parameter logistic dose-response curve. Data are expressed as means ± SD.
HEK293T cells transfected with pFlag-CMV-2 vector, pFlag-USP7, or pFlag-USP47 were treated with drugs, as indicated, and lysed by protein lysis buffer (20 mM Tris–Cl, 150 mM NaCl, 1 mM EDTA, 1 mM EGTA, 1% Triton X-100, 2.5 mM sodium pyrophosphate, 50 mM NaF, 5 mM β-glycerophosphate, 1 mM Na3VO4, 1x protease inhibitor, pH 7.5). […] Flag affinity gel was washed 5 times with lysis buffer and the supernatant was removed carefully with a syringe after the last wash step. For elution, Flag agarose was incubated with 3× Flag peptide (Sigma Aldrich) in elution buffer (15 μg of Flag peptide in 50 μl of lysis buffer) for 30 min at 4 °C. The supernatants were collected as immunoprecipitates. […] Samples were analyzed by Western blot and detected with the anti-ubiquitin antibody.

hUSP7CD = target: T2, hUSP7CD (Homo sapiens, UniProt Q93009); assay: Ub-AMC enzymatic inhibition assay, hUSP7CD; type: biochemical
T2 construct: Swiss Prot entry: Q93009, residues 208–560; His6 (N); made in house; host or cells: E. coli BL21 (DE3) codon plus RIL
Method: Enzymes and substrates were diluted in the reaction buffer (20 mM HEPES, pH 7.4, 150 mM NaCl, and 5 mM DTT) to a concentration of 5 μM for the substrate and 0.5 μM for the enzymes. […] USP enzymatic activity and inhibition assays were measured at room temperature using the cleavage-sensitive fluorogenic substrate Ub-AMC (Boston Biochem, U-550). […] The AMC fluorescence emission was monitored at 460 nm (excitation at 380 nm) for 30–60 min using a SpectraMax M3 plate reader (Molecular Devices). […] The data were fitted using GraphPad Prism 7 (GraphPad Inc.). Fluorescence intensity was recorded every 45 s for 90 min. Data are presented as the mean ± SD (n = 3).

Ub-AMC = Ub-AMC hydrolysis, Michaelis-Menten enzyme kinetics and relative activity of USP constructs; type: biochemical
Method: as §1

cUSP47CD, sequence (Q22240 entry or part of it): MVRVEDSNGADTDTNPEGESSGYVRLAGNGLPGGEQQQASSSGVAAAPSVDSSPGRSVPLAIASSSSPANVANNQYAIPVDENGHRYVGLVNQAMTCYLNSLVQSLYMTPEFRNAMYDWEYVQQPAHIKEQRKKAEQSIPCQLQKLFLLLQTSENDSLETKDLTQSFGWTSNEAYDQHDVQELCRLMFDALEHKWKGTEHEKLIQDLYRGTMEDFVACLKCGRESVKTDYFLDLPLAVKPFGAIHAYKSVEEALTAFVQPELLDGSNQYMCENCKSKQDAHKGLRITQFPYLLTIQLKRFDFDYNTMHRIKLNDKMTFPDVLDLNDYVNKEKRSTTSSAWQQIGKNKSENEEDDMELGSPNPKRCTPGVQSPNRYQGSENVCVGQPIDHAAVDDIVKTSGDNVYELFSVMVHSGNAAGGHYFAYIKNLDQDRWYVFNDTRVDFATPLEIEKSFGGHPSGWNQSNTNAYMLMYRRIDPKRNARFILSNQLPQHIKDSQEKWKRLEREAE
T1 sequence (Q93009 whole entry): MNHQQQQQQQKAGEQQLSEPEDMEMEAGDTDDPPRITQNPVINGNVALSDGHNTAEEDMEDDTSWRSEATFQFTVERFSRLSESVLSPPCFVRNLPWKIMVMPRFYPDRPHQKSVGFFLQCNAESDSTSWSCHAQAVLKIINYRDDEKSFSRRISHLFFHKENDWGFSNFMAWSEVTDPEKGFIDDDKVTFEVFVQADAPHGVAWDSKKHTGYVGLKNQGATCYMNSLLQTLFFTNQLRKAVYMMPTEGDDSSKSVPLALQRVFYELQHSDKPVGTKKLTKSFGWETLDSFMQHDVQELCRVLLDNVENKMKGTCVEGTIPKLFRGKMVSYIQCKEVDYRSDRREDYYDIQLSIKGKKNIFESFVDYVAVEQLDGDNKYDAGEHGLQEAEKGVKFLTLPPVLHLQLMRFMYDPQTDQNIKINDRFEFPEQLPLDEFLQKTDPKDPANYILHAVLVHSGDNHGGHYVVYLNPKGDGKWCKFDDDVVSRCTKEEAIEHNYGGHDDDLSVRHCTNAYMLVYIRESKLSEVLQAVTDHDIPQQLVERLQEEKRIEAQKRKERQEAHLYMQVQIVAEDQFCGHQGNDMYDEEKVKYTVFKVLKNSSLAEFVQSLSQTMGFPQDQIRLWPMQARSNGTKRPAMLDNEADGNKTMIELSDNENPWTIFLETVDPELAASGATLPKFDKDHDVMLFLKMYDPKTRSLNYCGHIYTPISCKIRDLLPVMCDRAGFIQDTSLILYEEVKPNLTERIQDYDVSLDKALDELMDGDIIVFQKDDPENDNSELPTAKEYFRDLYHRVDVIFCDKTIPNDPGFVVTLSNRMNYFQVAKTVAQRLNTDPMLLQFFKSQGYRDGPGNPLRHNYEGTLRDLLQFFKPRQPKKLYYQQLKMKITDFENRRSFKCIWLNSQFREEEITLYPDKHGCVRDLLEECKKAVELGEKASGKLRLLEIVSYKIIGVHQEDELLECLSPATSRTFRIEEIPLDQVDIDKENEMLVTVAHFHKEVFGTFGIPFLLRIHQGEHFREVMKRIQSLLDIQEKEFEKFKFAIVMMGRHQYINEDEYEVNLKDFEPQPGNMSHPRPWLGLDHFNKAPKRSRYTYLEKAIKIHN
T2 sequence (Q93009 208-560): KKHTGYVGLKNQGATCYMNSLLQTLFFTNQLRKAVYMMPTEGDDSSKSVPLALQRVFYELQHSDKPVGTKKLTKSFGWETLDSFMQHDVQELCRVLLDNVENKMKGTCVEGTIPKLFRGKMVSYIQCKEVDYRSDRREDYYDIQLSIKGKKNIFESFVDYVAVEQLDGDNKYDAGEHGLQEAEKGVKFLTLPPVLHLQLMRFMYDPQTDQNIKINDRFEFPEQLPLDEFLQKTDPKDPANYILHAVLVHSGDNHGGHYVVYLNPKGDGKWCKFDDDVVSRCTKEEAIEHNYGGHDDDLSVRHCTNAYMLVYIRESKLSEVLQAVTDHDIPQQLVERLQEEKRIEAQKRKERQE

C=C1C(=O)O[C@H]2[C@H]1CC/C(C)=C/CC[C@@]1(C)O[C@@H]21 [Parthenolide]
inhibition of USP7 (USP7): can also inhibit both DUBs
inhibition of USP47 (USP47): can also inhibit both DUBs

C[C@H](CC(=O)N1CCC(O)(Cn2cnc3cc(NC(=O)CCN4CCN(C)CC4)ccc3c2=O)CC1)c1ccccc1 [XL188]
potency and specificity for USP7 (USP7; recently reported USP7 inhibitors): high potency and specificity only for USP7

USP7i-2: USP7 siRNA #2, 5′-ACCCUUGGACAAUAUUCCU-3′ (chemistry not given here)
relative expression level of USP7 (Q-PCR) (HCT116 (p53+/+) cells): 0.5662
relative expression level of USP47 (Q-PCR) (HCT116 (p53+/+) cells): 0.9671

CS(=O)(=O)c1ccc(NC(=O)c2cc(C#N)c(Sc3c(Cl)cncc3Cl)s2)cc1 [P50429]
IC50 (cUSP47CD; Ub-AMC, USP47 50 nM, 10 min at 25 °C, triplicate, mean ± SD): 1.4 ± 0.2 µM
Residual enzymatic activity, cUSP47CD_IC50(p50429) (cUSP47CD; inhibitor concentration 0.0244141, three replicates, 0.0244141 µM): 98.3931 and 102.68
remaining activity at 0.0244141 µM (cUSP47CD; inhibitor concentration 0.0244141, three replicates, read-out: Residual enzymatic activity, cUSP47CD_IC50(p50429)): 106%
Residual enzymatic activity, cUSP47CD_IC50(p50429) (cUSP47CD; inhibitor concentration 0.0488281, three replicates, 0.0488281 µM): 94.8604 and 95.1269
remaining activity at 0.0488281 µM (cUSP47CD; inhibitor concentration 0.0488281, three replicates, read-out: Residual enzymatic activity, cUSP47CD_IC50(p50429)): 100%
Residual enzymatic activity, cUSP47CD_IC50(p50429) (cUSP47CD; inhibitor concentration 0.0976562, three replicates, 0.0976562 µM): 90.0141 and 90.4933
remaining activity at 0.0976562 µM (cUSP47CD; inhibitor concentration 0.0976562, three replicates, read-out: Residual enzymatic activity, cUSP47CD_IC50(p50429)): 86.3%
Residual enzymatic activity, cUSP47CD_IC50(p50429) (cUSP47CD; inhibitor concentration 0.195312, three replicates, 0.195312 µM): 70.9575 and 84.4737
remaining activity at 0.195312 µM (cUSP47CD; inhibitor concentration 0.195312, three replicates, read-out: Residual enzymatic activity, cUSP47CD_IC50(p50429)): 90.3%
Residual enzymatic activity, cUSP47CD_IC50(p50429) (cUSP47CD; inhibitor concentration 0.390625, three replicates, 0.390625 µM): 71.1433 and 81.3617
remaining activity at 0.390625 µM (cUSP47CD; inhibitor concentration 0.390625, three replicates, read-out: Residual enzymatic activity, cUSP47CD_IC50(p50429)): 83.2%
Residual enzymatic activity, cUSP47CD_IC50(p50429) (cUSP47CD; inhibitor concentration 0.78125, three replicates, 0.78125 µM): 64.5756 and 70.9586
remaining activity at 0.78125 µM (cUSP47CD; inhibitor concentration 0.78125, three replicates, read-out: Residual enzymatic activity, cUSP47CD_IC50(p50429)): 71.1%
Residual enzymatic activity, cUSP47CD_IC50(p50429) (cUSP47CD; inhibitor concentration 1.5625, three replicates, 1.5625 µM): 47.6458 and 50.9074
remaining activity at 1.5625 µM (cUSP47CD; inhibitor concentration 1.5625, three replicates, read-out: Residual enzymatic activity, cUSP47CD_IC50(p50429)): 52.3%
Residual enzymatic activity, cUSP47CD_IC50(p50429) (cUSP47CD; inhibitor concentration 3.125, three replicates, 3.125 µM): 23.3806 and 22.8255
remaining activity at 3.125 µM (cUSP47CD; inhibitor concentration 3.125, three replicates, read-out: Residual enzymatic activity, cUSP47CD_IC50(p50429)): 24.7%
Residual enzymatic activity, cUSP47CD_IC50(p50429) (cUSP47CD; inhibitor concentration 6.25, three replicates, 6.25 µM): 13.3082 and 13.4812
remaining activity at 6.25 µM (cUSP47CD; inhibitor concentration 6.25, three replicates, read-out: Residual enzymatic activity, cUSP47CD_IC50(p50429)): 23%
Residual enzymatic activity, cUSP47CD_IC50(p50429) (cUSP47CD; inhibitor concentration 12.5, three replicates, 12.5 µM): 11.6652 and 7.474
remaining activity at 12.5 µM (cUSP47CD; inhibitor concentration 12.5, three replicates, read-out: Residual enzymatic activity, cUSP47CD_IC50(p50429)): 11.3%
Residual enzymatic activity, cUSP47CD_IC50(p50429) (cUSP47CD; inhibitor concentration 25, three replicates, 25 µM): 6.001 and 6.389
remaining activity at 25 µM (cUSP47CD; inhibitor concentration 25, three replicates, read-out: Residual enzymatic activity, cUSP47CD_IC50(p50429)): 7.06%
Residual enzymatic activity, cUSP47CD_IC50(p50429) (cUSP47CD; inhibitor concentration 50 (0–50 μM series), three replicates, 50 µM): 4.2047 and -1.497 and -1.461
DUB activity on K48-linked ubiquitin chains (Flag-USP7): inhibited the DUB activity
IC50 (hUSP7CD): 5.3 ± 1 µM

B1: hUSP47CD-UBL12: human USP47 catalytic domain with the first two UBL domains, residues 1-794 (protein, UniProt Q96K76 1-794, looked up, fragment)
chain: MVPGEENQLVPKEDVFWRCRQNIFDEMKKKFLQIENAAEEPRVLCIIQDTTNSKTVNERITLNLPASTPVRKLFEDVANKVGYINGTFDLVWGNGINTADMAPLDHTSDKSLLDANFEPGKKNFLHLTDKDGEQPQILLEDSSAGEDSVHDRFIGPLPREGSGGSTSDYVSQSYSYSSILNKSETGYVGLVNQAMTCYLNSLLQTLFMTPEFRNALYKWEFEESEEDPVTSIPYQLQRLFVLLQTSKKRAIETTDVTRSFGWDSSEAWQQHDVQELCRVMFDALEQKWKQTEQADLINELYQGKLKDYVRCLECGYEGWRIDTYLDIPLVIRPYGSSQAFASVEEALHAFIQPEILDGPNQYFCERCKKKCDARKGLRFLHFPYLLTLQLKRFDFDYTTMHRIKLNDRMTFPEELDMSTFIDVEDEKSPQTESCTDSGAENEGSCHSDQMSNDFSNDDGVDEGICLETNSGTEKISKSGLEKNSLIYELFSVMVHSGSAAGGHYYACIKSFSDEQWYSFNDQHVSRITQEDIKKTHGGSSGSRGYYSSAFASSTNAYMLIYRLKDPARNAKFLEVDEYPEHIKNLVQKERELEEQEKRQREIERNTCKIKLFCLHPTKQVMMENKLEVHKDKTLKEAVEMAYKMMDLEEVIPLDCCRLVKYDEFHDYLERSYEGEEDTPMGLLLGGVKSTYMFDLLLETRKPDQVFQSYKPGEVMVKVHVVDLKAESVAAPITVRAYLNQTVTEFKQLISKAIHLPAETMRIVLERCYNDLRLLSVSSKTLKAEGFFRSNKVFV
modifications: catalytic domain with UBL1-2
Km (Ub-AMC): 3 ± 0.6 µM
kcat (Ub-AMC): 0.03 ± 0.002 s⁻¹
